# Values quoted from earlier work in US20220240500A1, “Cryopreservation compositions and methods involving nanowarming” (REGENTS OF THE UNIVERSITY OF MINNESOTA, priority 2016, published 2022).
# Test system: zebrafish embryos
# Conditions: 2.3 M injected; previous studies
compound,measurement,value
CC(O)CO (stereo not shown) [Propylene Glycol],survival from injection into the zebrafish embryo,high survival
